The values that follow come from publication PMC8584011, “Immunomodulatory Lectin-like Peptides for Fish Erythrocytes-Targeting as Potential Antiviral Drug Delivery Platforms” (International Journal of Molecular Sciences, 2021).

The subject of one data set is rabbit RBCs. Particulars: cited from earlier work. The text has this:
(§1) Among the identified peptides in the literature, we selected three peptides based on their reported affinity to bind nucleated RBCs or mammalian RBCs. […] This peptide will be named in this article as 4341. Another selected peptide is a small peptide with lectin-like behavior, called odorranalectin (hereafter referred ...

In a further data set the test system is human RBCs. To be noted: cited from earlier work.
Text: as §1

Data set [1] has as its system rainbow trout RBCs. Kind of data set: Antiviral gene expression in RBCs by RT-qPCR. Format: cell-based, rainbow trout (Oncorhynchus mykiss). Particulars: 50 µM peptide, 6 h post-treatment at 14 °C, normalized to ef1α, relative to untreated RBCs. As to the method: Figure 3 Antiviral immunomodulation of the peptides in rainbow trout RBCs. Antiviral gene (ifit5, mx1-3, nkef, and vig1) expression quantified by RT-qPCR in RBCs at 6 h post-treatment (hpt) with 50 µM of each peptide. Gene expression was normalized against ef1α and relativized to control cells (RBCs untreated) (red line). Data represent the mean ± standard deviation (SD), n = 4. Mann–Whitney test was performed (* p < 0.05).
To evaluate the possible antiviral immunomodulatory effects of the peptides, ficoll-purified RBCs (10^6 cells/well) were incubated with 50 µM of 4341, 4342, 4343 Rhd-labeled peptides for 6 h at 14 °C. After that, RBCs were washed, and samples were stored in buffer for RNA extraction and RT-qPCR analysis (Figure 5).
The E.Z.N.A.® Total RNA Kit (Omega Bio-Tek Inc., Norcross, GA, USA) was used for RNA isolation according to the manufacturer’s instructions. Subsequent DNAse treatment was done using TURBO™ DNase (Ambion, Thermo Fisher Scientific, Waltham, MA USA) to eliminate possible residual genomic DNA. RNA was quantified with a NanoDrop Spectrophotometer (Nanodrop Technologies, Wilmington, DE, USA). Then, cDNA synthesis from RNA was performed using M-MLV reverse transcriptase (Invitrogen, Thermo Fisher Scientific) as previously described.
To evaluate the gene expression of RBCs treated with 50 µM of the three Rhd-labeled peptides, RT-qPCR was carried out using the QUANTSTUDIO 3 System (Applied Biosystems, Thermo Fisher Scientific Inc.). Gene expression was analyzed by the 2^–ΔΔCt method. The ef1α gene was used as endogenous control.

The subject of data set [2] is rainbow trout RBCs. Description: In vivo binding of peptides to RBCs after i.v. injection, flow cytometry (iMFI). To be noted: i.v. injection of 100 µM peptide in 50 µL, peripheral blood at 3 hpi, mean ± SD n = 3, ranking of peptides. Details: species or system rainbow trout (Oncorhynchus mykiss). As to the method: Figure 4 Peptide binding to rainbow trout RBCs in vivo, by means of flow cytometry. (a) Integrated median fluorescence intensity (iMFI) (% positive cells × MFI) of RBCs from blood of rainbow trout injected intravenously with the three selected peptides, 3 hpi with 100 µM of each peptide, analyzed by flow cytometry. Data represent the mean ± standard deviation (SD), n = 3. Kruskal–Wallis test with Dunn’s multiple comparison test was performed (p < 0.05). C means control RBCs. (b) Representative images of RBCs from blood of rainbow trout injected intravenously with the three selected peptides, 3 hpi with 100 µM of each peptide. The images were taken with the IN Cell Analyzer 6000 Cell Imaging system at 40× magnification. Peptides are labeled with Rhd (red). […]
Juvenile rainbow trout (7–10 g) were anesthetized with tricaine methanesulfonate, (Sigma-Aldrich, Madrid, Spain) (40 mg/L) and injected intravenously (i.v) with 100 µM of 4341, 4342, 4343 Rhd-labeled peptides in 50 µL of RMPI 2% FBS using insulin syringes. […] Then, blood samples were evaluated by means of flow cytometry and fluorescent microscopy as described below (Figure 6).
RBCs treated in vitro with the Rhd-labeled peptides and blood samples from individuals of rainbow trout injected with the three Rhd-labeled peptides were analyzed by flow cytometry using a FACS Canto II flow cytometer (BD Biosciences, Madrid, Spain). […]

Data set [3] has as its system rainbow trout RBCs. Description: Confocal microscopy of peptide-RBC binding / presence inside the cell. Format: cell-based, rainbow trout (Oncorhynchus mykiss). To be noted: 90 min incubation with Rhd-labeled peptides, Hoechst and CellMask Green staining. The procedure:
Figure 2 Volume 3D reconstruction of the visualization of the peptides binding to rainbow trout RBCs. Rhd-labeled peptides are represented in red, nuclei were stained with Hoescht and are represented in blue, and cell membrane was stained using CellMask Green and is represented in beige. The images were taken at 63× magnification. Confocal images were processed using the ZEN 3.2 (Blue edition). Volume rendering was performed with IMARIS v9.3. Upper images represent plan view and lower images represent perspective view.
Confocal microscopy was performed to evaluate peptide-RBCs binding in vitro. After 90 min of incubation with Rhd-labeled peptides, RBCs were washed, and nuclei were stained with Hoechst (1 μg/mL) (Sigma-Aldrich) and membrane was stained with CellMask Green (5 μg/mL) (Thermo Fischer Scientific). Images were taken with a Zeiss LSM900 with Airyscan 2 and analyzed with ZEN 3.2 (Blue edition) software (Zeiss, Oberkochen, Germany). Volume rendering was performed using IMARIS Software v9.3 (Bitplane, Zurich, Switzerland).

Data set [4] relates to rainbow trout RBCs. Kind of data set: In vitro binding of Rhd-labeled peptides to RBCs, flow cytometry (iMFI). Format: cell-based, rainbow trout (Oncorhynchus mykiss). To be noted: 100 µM Rhd-labeled peptide, 90 min at 14 °C, 10^5 cells/well, mean ± SD n = 3, ranking of peptides. As to the method:
In order to evaluate the binding of the peptides for RBCs, we carried out a dose-response assay using a concentration range from 25 to 100 µM. The binding of the Rhodamine (Rhd)-labeled peptides was evaluated by means of flow cytometry and calculated as the integrated median fluorescence intensity (iMFI), which is computed by multiplying the relative frequency (% positive) of cells with the median fluorescence intensity (MFI) of that population. […] Besides, hemagglutination was not observed at the concentrations of peptides used (Supplementary Figure S1). Cell toxicity was not observed neither in vitro nor in vivo at the maximum concentration of peptides used (Supplementary Figure S2).
Figure 1 Peptide binding to rainbow trout RBCs in vitro, evaluated by means of flow cytometry. (a) Integrated median fluorescence intensity (iMFI) (% positive cells × MFI) of rainbow trout RBCs treated with different peptide concentrations, 90 min after incubation, analyzed by flow cytometry. Data represent the mean ± standard deviation (SD), n = 3. […]
Ficoll-purified RBCs (10^5 cells/well) were treated with 25, 50, and 100 µM of 4341, 4342, 4343 Rhd-labeled peptides, and incubated for 90 min at 14 °C. Then, RBCs were washed with 200 µL of RPMI 2% FBS and analyzed by flow cytometry, fluorescent microscopy, and confocal microscopy as described below (Figure 5). […]

For data set [5] the following is noted: cited from earlier work. The text has this: In addition, our selected peptides were mainly found inside RBCs, instead of at the surface of the RBCs, as observed by confocal microscopy. […] In this contex ...

As for “Rhd-YASPKCFRYPNGVLACT [compound 4342, odorranalectin, Rhd-labeled small peptide with lectin-like behavior, called odorranalectin]”, the “Binding to rabbit RBCs” value in the data set with rabbit RBCs is on record as “bind”. The “Binding to human RBCs” value in the data set with human RBCs is “bind”. The mx1-3 gene expression result in the data set on rainbow trout RBCs [1] (n = 4) is “slight and not statistically significant upregulation”. Moreover, the ifit5 gene expression result with rainbow trout RBCs [1] (n = 4, Mann–Whitney p < 0.05) is “statistically significantly upregulated”. Further, in the data set with rainbow trout RBCs [1] (n = 4, not statistically significant), the nkef gene expression result is listed as “upregulated”. Besides, the “Binding to RBCs in vivo (iMFI = % positive cells × MFI)” value in the data set on rainbow trout RBCs [2] is on record as “highest iMFI”. For the same substance, the “Presence of peptide inside the cell” value in the data set on rainbow trout RBCs [3] is “higher”. Moreover, the “Binding to RBCs (iMFI = % positive cells × MFI)” value with rainbow trout RBCs [4] is recorded as “highest binding”. In addition, in data set [5], the Stability in circulation entry is “high stability in circulation”.
